Results reported in the kinase profiling compilation of Christmann-Franck et al. (2016).

Key:
GSK3B (human) = GSK3B (human) (UniProt P49841); experiment: radiometric filter-binding kinase assay
MAP3K7 (human) = MAP3K7 (human) (UniProt O43318); experiment: radiometric filter-binding kinase assay
MAPK8 (human) = MAPK8 (human) (UniProt P45983); experiment: radiometric filter-binding kinase assay
[1] = test system: ABL1 (human), P00519 [M351T]; experiment: KINOMEscan competition binding; settings: compound 1.0 µM
AKT1 (human) = AKT1 (human) (UniProt P31749); experiment: KINOMEscan competition binding; settings: compound 1.0 µM
BLK (human) = BLK (human) (UniProt P51451); experiment: KINOMEscan competition binding; settings: compound 1.0 µM
BRSK2 (human) = BRSK2 (human) (UniProt Q8IWQ3); experiment: KINOMEscan competition binding; settings: compound 1.0 µM
CAMK2G (human) = CAMK2G (human) (UniProt Q13555); experiment: KINOMEscan competition binding; settings: compound 1.0 µM
CSNK1D (human) = CSNK1D (human) (UniProt P48730); experiment: KINOMEscan competition binding; settings: compound 1.0 µM
DAPK1 (human) = DAPK1 (human) (UniProt P53355); experiment: KINOMEscan competition binding; settings: compound 1.0 µM
DAPK3 (human) = DAPK3 (human) (UniProt O43293); experiment: KINOMEscan competition binding; settings: compound 1.0 µM
[2] = test system: EGFR (human), P00533 [752-759 del]; experiment: KINOMEscan competition binding; settings: compound 1.0 µM
EPHB6 (human) = EPHB6 (human) (UniProt O15197); experiment: KINOMEscan competition binding; settings: compound 1.0 µM
FES (human) = FES (human) (UniProt P07332); experiment: KINOMEscan competition binding; settings: compound 1.0 µM
FLT1 (human) = FLT1 (human) (UniProt P17948); experiment: KINOMEscan competition binding; settings: compound 1.0 µM
GRK1 (human) = GRK1 (human) (UniProt Q15835); experiment: KINOMEscan competition binding; settings: compound 1.0 µM
GSK3A (human) = GSK3A (human) (UniProt P49840); experiment: KINOMEscan competition binding; settings: compound 1.0 µM
HIPK4 (human) = HIPK4 (human) (UniProt Q8NE63); experiment: KINOMEscan competition binding; settings: compound 1.0 µM
ICK (human) = ICK (human) (UniProt Q9UPZ9); experiment: KINOMEscan competition binding
[3] = test system: KIT (human), P10721 [D816H]; experiment: KINOMEscan competition binding; settings: compound 1.0 µM
LCK (human) = LCK (human) (UniProt P06239); experiment: KINOMEscan competition binding; settings: compound 1.0 µM
LIMK1 (human) = LIMK1 (human) (UniProt P53667); experiment: KINOMEscan competition binding; settings: compound 1.0 µM
MAP2K7 (human) = MAP2K7 (human) (UniProt O14733); experiment: KINOMEscan competition binding; settings: compound 1.0 µM
MAP3K15 (human) = MAP3K15 (human) (UniProt Q6ZN16); experiment: KINOMEscan competition binding; settings: compound 1.0 µM
MAPK10 (human) = MAPK10 (human) (UniProt P53779); experiment: KINOMEscan competition binding; settings: compound 1.0 µM
MAPK4 (human) = MAPK4 (human) (UniProt P31152); experiment: KINOMEscan competition binding; settings: compound 1.0 µM
MARK4 (human) = MARK4 (human) (UniProt Q96L34); experiment: KINOMEscan competition binding; settings: compound 1.0 µM
MKNK1 (human) = MKNK1 (human) (UniProt Q9BUB5); experiment: KINOMEscan competition binding; settings: compound 1.0 µM
MST1R (human) = MST1R (human) (UniProt Q04912); experiment: KINOMEscan competition binding; settings: compound 1.0 µM
MYLK (human) = MYLK (human) (UniProt Q15746); experiment: KINOMEscan competition binding; settings: compound 1.0 µM
PAK3 (human) = PAK3 (human) (UniProt O75914); experiment: KINOMEscan competition binding; settings: compound 1.0 µM
[4] = test system: PIK3CA (human), P42336 [E542K]; experiment: KINOMEscan competition binding; settings: compound 1.0 µM
[5] = test system: PIK3CA (human), P42336 [M1043I]; experiment: KINOMEscan competition binding; settings: compound 1.0 µM
PIM1 (human) = PIM1 (human) (UniProt P11309); experiment: KINOMEscan competition binding; settings: compound 1.0 µM
PKN3 (M.tuberculosis) = PKN3 (M.tuberculosis) (UniProt Q6P5Z2); experiment: KINOMEscan competition binding; settings: compound 1.0 µM
PRKACA (human) = PRKACA (human) (UniProt P17612); experiment: KINOMEscan competition binding; settings: compound 1.0 µM
PRKD1 (human) = PRKD1 (human) (UniProt Q15139); experiment: KINOMEscan competition binding; settings: compound 1.0 µM
PRPF4B (human) = PRPF4B (human) (UniProt Q13523); experiment: KINOMEscan competition binding; settings: compound 1.0 µM
ROS1 (human) = ROS1 (human) (UniProt P08922); experiment: KINOMEscan competition binding; settings: compound 1.0 µM
SIK1 (human) = SIK1 (human) (UniProt P57059); experiment: KINOMEscan competition binding; settings: compound 1.0 µM
STK32B (human) = STK32B (human) (UniProt Q9NY57); experiment: KINOMEscan competition binding; settings: compound 1.0 µM
TGFBR2 (human) = TGFBR2 (human) (UniProt P37173); experiment: KINOMEscan competition binding; settings: compound 1.0 µM
KIT (human) = KIT (human) (UniProt P10721)
Sequence of KIT (human) (P10721 whole entry, looked up): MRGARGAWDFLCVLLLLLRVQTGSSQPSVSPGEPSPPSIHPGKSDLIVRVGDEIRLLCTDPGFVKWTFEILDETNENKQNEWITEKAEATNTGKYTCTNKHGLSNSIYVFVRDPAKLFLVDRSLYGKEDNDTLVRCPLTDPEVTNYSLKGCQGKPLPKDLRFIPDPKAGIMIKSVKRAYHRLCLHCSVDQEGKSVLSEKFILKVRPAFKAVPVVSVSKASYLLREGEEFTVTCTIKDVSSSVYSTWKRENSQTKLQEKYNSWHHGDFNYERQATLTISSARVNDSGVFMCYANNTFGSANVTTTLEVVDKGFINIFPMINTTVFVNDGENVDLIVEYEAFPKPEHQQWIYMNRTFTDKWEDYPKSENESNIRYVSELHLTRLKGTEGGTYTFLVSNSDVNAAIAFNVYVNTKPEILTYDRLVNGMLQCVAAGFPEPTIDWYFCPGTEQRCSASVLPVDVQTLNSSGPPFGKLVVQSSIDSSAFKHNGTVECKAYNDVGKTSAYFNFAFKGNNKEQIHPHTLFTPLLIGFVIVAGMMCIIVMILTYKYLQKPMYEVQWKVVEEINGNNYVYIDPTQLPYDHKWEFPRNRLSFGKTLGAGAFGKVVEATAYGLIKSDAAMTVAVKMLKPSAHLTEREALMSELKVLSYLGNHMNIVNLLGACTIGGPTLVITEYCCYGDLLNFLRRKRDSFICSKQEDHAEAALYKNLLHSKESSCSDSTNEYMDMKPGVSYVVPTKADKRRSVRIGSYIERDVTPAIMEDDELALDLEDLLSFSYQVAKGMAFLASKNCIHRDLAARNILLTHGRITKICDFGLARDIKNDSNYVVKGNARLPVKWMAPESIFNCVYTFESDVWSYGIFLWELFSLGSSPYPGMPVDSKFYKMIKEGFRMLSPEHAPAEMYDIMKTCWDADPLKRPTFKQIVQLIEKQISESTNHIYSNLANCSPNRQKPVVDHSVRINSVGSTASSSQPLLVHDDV

Sequence of ICK (human) (Q9UPZ9 whole entry, looked up): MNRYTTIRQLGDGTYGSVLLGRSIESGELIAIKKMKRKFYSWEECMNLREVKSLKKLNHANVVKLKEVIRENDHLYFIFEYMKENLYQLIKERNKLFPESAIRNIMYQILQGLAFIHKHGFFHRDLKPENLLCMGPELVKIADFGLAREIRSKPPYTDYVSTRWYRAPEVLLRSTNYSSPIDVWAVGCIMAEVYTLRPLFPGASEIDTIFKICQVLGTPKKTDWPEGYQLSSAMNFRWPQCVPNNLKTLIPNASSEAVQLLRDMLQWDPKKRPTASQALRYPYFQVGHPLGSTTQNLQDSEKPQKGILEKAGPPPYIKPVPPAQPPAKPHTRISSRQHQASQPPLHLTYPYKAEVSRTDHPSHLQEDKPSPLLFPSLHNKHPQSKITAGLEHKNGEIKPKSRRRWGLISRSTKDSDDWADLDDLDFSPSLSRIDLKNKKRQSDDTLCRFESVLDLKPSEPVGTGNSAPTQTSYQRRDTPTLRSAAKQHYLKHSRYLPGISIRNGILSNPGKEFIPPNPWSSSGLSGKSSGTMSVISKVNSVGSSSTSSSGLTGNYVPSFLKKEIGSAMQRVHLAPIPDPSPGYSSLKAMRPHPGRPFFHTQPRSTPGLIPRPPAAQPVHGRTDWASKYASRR
Sequence of GSK3A (human) (P49840 whole entry, looked up): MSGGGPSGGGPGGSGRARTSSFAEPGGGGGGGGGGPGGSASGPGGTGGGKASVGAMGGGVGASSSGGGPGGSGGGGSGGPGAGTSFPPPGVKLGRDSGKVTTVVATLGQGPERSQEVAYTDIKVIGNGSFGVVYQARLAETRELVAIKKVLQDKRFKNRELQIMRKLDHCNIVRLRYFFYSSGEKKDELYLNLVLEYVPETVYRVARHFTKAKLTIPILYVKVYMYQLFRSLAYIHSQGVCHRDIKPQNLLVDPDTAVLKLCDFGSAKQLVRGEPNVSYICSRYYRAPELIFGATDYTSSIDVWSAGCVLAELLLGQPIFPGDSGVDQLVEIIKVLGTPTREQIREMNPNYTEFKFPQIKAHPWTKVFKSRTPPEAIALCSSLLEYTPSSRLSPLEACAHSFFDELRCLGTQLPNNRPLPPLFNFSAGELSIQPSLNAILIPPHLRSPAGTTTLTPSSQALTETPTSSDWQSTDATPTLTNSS
Sequence of LIMK1 (human) (P53667 whole entry, looked up): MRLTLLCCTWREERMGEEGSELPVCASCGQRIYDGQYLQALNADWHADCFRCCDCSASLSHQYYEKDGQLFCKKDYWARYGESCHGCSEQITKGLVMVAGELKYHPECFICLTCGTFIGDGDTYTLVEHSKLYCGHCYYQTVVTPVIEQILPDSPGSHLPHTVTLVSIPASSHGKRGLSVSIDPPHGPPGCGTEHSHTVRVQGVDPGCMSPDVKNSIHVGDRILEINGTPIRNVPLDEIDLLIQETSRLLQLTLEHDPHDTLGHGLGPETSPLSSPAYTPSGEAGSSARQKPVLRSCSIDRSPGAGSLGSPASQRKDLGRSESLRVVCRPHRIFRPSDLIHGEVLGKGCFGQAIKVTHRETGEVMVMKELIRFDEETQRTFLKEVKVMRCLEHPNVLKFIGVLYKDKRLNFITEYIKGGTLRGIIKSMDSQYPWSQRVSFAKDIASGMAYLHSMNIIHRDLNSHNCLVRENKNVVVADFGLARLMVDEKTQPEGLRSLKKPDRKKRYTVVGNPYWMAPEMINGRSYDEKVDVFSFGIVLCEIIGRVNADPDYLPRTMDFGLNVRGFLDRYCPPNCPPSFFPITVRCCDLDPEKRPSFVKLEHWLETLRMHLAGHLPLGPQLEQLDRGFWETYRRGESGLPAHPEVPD
Sequence of PAK3 (human) (O75914 whole entry, looked up): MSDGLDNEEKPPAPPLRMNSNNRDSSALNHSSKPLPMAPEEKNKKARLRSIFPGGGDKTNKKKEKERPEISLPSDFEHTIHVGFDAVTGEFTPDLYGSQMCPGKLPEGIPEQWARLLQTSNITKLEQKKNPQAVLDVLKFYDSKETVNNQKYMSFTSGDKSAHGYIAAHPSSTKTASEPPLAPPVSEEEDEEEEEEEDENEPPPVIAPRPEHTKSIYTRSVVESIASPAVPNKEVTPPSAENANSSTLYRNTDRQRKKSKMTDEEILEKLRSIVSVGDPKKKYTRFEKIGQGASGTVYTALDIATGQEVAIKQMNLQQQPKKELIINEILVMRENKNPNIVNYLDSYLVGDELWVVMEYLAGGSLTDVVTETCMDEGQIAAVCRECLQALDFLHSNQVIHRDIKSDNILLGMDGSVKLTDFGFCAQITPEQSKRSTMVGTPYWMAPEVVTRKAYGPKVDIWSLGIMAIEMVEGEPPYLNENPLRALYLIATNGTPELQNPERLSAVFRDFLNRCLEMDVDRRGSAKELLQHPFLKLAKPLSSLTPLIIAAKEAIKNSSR
Sequence of EPHB6 (human) (O15197 whole entry, looked up): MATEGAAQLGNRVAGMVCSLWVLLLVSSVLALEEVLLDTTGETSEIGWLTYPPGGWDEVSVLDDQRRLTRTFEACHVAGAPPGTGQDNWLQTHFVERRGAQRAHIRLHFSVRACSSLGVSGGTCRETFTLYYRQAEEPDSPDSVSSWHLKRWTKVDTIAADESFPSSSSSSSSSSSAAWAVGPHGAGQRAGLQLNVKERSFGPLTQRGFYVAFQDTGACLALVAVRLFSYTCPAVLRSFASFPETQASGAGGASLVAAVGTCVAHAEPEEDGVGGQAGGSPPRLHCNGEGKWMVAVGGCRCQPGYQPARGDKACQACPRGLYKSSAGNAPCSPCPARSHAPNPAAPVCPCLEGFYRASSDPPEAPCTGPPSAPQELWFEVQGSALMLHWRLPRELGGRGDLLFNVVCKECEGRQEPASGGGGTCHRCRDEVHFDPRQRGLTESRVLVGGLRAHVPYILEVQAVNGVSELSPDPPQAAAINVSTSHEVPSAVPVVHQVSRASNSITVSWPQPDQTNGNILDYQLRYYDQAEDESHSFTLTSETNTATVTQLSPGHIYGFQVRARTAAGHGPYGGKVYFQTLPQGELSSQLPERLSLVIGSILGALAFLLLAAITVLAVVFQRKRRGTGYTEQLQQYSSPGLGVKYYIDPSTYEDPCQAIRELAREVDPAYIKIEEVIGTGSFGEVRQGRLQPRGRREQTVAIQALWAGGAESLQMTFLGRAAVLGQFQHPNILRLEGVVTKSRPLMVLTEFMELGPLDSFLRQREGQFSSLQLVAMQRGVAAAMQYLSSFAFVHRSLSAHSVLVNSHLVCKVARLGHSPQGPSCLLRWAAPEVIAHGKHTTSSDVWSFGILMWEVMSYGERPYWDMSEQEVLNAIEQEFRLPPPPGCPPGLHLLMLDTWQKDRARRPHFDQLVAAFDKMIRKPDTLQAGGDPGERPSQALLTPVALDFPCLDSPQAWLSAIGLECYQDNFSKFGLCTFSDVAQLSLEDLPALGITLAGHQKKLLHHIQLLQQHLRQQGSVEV
Sequence of MAP3K7 (human) (O43318 whole entry, looked up): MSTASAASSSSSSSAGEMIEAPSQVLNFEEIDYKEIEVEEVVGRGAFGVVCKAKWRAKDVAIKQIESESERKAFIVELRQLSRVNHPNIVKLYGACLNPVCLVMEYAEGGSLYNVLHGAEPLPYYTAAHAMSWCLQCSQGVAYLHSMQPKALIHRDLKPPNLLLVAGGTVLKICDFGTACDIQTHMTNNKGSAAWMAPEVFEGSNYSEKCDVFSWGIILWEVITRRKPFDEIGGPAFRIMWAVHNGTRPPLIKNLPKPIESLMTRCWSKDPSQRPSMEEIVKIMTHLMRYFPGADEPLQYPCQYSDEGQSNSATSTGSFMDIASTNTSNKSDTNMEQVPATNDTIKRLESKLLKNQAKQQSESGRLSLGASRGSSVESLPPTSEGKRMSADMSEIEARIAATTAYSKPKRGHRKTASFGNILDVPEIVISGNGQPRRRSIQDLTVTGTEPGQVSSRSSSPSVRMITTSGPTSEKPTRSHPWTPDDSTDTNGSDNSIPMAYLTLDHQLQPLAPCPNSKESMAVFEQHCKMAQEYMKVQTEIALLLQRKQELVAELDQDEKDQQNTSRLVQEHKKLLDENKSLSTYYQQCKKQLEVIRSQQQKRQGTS
Sequence of KIT (human), P10721 [D816H] (P10721 whole entry D816H, looked up): as the sequence (P10721 whole entry, looked up) above, with D816H counted along it

## CN(C)C/C=C/C(=O)Nc1cccc(C(=O)Nc2ccc(Nc3nccc(-c4cccnc4)n3)cc2)c1
GSK3B (human)
  IC50: 933 nM
MAP3K7 (human)
  IC50: 833 nM
MAPK8 (human)
  IC50: 41 nM
[1]
  kinase still bound, per cent of control: 42%
AKT1 (human)
  kinase still bound, per cent of control: 87%
BLK (human)
  kinase still bound, per cent of control: 100%
BRSK2 (human)
  kinase still bound, per cent of control: 98%
CAMK2G (human)
  kinase still bound, per cent of control: 99%
CSNK1D (human)
  kinase still bound, per cent of control: 5.6%
DAPK1 (human)
  kinase still bound, per cent of control: 63%
DAPK3 (human)
  kinase still bound, per cent of control: 65%
[2]
  kinase still bound, per cent of control: 81%
EPHB6 (human)
  kinase still bound, per cent of control: 18%
FES (human)
  kinase still bound, per cent of control: 100%
FLT1 (human)
  kinase still bound, per cent of control: 75%
GRK1 (human)
  kinase still bound, per cent of control: 100%
GSK3A (human)
  kinase still bound, per cent of control: 65%
HIPK4 (human)
  kinase still bound, per cent of control: 18%
ICK (human)
  Kd: 54 nM
ICK (human); compound 1.0 µM
  kinase still bound, per cent of control: 3.4%
[3]
  kinase still bound, per cent of control: 42%
LCK (human)
  kinase still bound, per cent of control: 100%
LIMK1 (human)
  kinase still bound, per cent of control: 71%
MAP2K7 (human)
  kinase still bound, per cent of control: 100%
MAP3K15 (human)
  kinase still bound, per cent of control: 88%
MAPK10 (human)
  kinase still bound, per cent of control: 0%
MAPK4 (human)
  kinase still bound, per cent of control: 11%
MARK4 (human)
  kinase still bound, per cent of control: 40%
MKNK1 (human)
  kinase still bound, per cent of control: 100%
MST1R (human)
  kinase still bound, per cent of control: 100%
MYLK (human)
  kinase still bound, per cent of control: 100%
PAK3 (human)
  kinase still bound, per cent of control: 100%
[4]
  kinase still bound, per cent of control: 82%
[5]
  kinase still bound, per cent of control: 74%
PIM1 (human)
  kinase still bound, per cent of control: 94%
PKN3 (M.tuberculosis)
  kinase still bound, per cent of control: 69%
PRKACA (human)
  kinase still bound, per cent of control: 83%
PRKD1 (human)
  kinase still bound, per cent of control: 100%
PRPF4B (human)
  kinase still bound, per cent of control: 93%
ROS1 (human)
  kinase still bound, per cent of control: 100%
SIK1 (human)
  kinase still bound, per cent of control: 87%
STK32B (human)
  kinase still bound, per cent of control: 100%
TGFBR2 (human)
  kinase still bound, per cent of control: 76%
KIT (human)
  IC50: 2410 nM
